# Experimental data reported in patent US7122651B1, “Nucleic acid molecules encoding opioid growth factor receptors” (priority 1998, dated 2006).
# Experiments:
# [1] = target: T1, PANC-1 nuclear (P1) homogenates (Homo sapiens, UniProt Q9NZT2); experiment: Binding of [^3H]-[Met^5]-enkephalin to PANC-1 nuclear homogenates (saturation and characterization); conditions: for Binding, of the optimal binding at 22° C.: 2 nM ligand
# T1 construct: host or cells: PANC-1; nuclear (P1) homogenates, and P2, P3 and S3 fractions in the fractionation study
# T1 sequence (Q9NZT2 1-677): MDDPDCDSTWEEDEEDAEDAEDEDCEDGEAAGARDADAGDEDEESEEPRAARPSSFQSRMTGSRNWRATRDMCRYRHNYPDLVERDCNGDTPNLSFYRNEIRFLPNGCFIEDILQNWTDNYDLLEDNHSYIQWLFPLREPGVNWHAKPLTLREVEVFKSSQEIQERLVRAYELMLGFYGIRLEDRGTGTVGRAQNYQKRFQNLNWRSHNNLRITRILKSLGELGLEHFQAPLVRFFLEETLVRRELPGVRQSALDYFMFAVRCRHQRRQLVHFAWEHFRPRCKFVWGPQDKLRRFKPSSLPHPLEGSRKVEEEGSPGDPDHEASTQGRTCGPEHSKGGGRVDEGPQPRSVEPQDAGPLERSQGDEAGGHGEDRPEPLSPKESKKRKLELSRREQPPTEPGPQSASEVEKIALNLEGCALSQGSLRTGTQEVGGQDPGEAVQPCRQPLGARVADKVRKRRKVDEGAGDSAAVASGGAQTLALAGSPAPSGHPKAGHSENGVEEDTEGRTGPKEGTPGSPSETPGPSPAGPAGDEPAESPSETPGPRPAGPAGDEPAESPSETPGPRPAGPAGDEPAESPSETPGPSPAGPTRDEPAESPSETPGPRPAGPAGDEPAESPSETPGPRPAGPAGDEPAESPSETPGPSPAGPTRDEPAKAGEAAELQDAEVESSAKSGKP
# Description: (§1) Cell culture. PANC-1, Mia PaCa-2, BxPC-3, and Capan-1 cell lines were obtained from the American Type Culture Collection (Manassas, Va.). […] Panc-1 cells between passages 62–74 were used for the characterization studies.
# (§2) Preparation of protein fractions. Cell cultures were harvested by scraping of the flasks, and cells were pelleted by centrifugation. The washed pellet was homogenized (Polytron, setting 5, 2×10 sec) in a 1:20 (wt/vol) solution of cold 50 mM Tris-HCl with 0.1 mg/ml bacitracin, 1 mg/ml leupeptin, 6 nM thiorphan, 1 mM EGTA, and 3.5 mM PMSF (pH 7.4) at 4° C.; this buffer is termed Tris/all.
# (§3) Receptor binding assays. Homogenates of nuclear protein were diluted with Tris/all to the appropriate protein concentration and incubated at room temperature (22° C.) for 20 min to remove endogenous peptides. Aliquots of protein were resuspended to 0.95 ml and incubated with agitation with radioactive ligand. […] The final volume of the incubation mixture was 1 ml. Isotope incubation was terminated by rapid filtration through Whatman GF-B filters under vacuum pressure with a Brandel Cell Harvester. Filters were rinsed with ice-cold Tris/all buffer, dried at 60° C. for 1 hr and counted by liquid scintillation spectrometry (Beckman LS-2800). […] Duplicate tubes of homogenates were assayed for each concentration utilized. Protein concentrations were determined by the BioRad method with g-globulin as the standard.
# (§4) Analysis and statistics. Receptor binding data were analyzed with either the Lundon I (Saturation Isotherm Binding Analysis) computer program (Lundon Software, Cleveland, Ohio) or GraphPad Prism software. Both programs utilize nonlinear least-squares regression. Binding isotherms and Scatchard plots were computed directly by the programs. […] Comparisons of Bmax and Kd values were made using analysis of variance and posthoc Newman-Keuls tests.
# [2] = target: T2, nuclear homogenates of human pancreatic tumor cells (PANC-1) (Homo sapiens, UniProt Q9NZT2); experiment: Competition for binding of [^3H]-[Met^5]-enkephalin in PANC-1 nuclear homogenates; conditions: for competition for [^3H][Met^5]-enkephalin binding: 1 or 2 nM radioligand
# T2 construct: host or cells: PANC-1; nuclear (P1) homogenates, and P2, P3 and S3 fractions in the fractionation study
# T2 sequence (Q9NZT2 1-677): T1 sequence (Q9NZT2 1-677)
# Description: Each concentration was run in triplicate and every compound was tested twice.
# as §4
# Competition experiments using 1 or 2 nM [^3H]
# [3] = tested on: IEC-6 rat small intestine epithelial cell line; experiment: Cell number in IEC-6 cultures (trypan blue, hemacytometer); type: cell-based; conditions: 10^−6 M, 48 hr of exposure, IEC-6 cells
# Description: FIG. 6 depicts histogram of cell number in cultures of IEC-6 rat intestinal epithelial cells treated for 48 hr with either sterile water (CO), 10^−6 M NTX, 10^−6 M 23-mer S-ODN (antisense), or scrambled oligoprobe (scrambled). Cells (5×10^3) were plated, and compounds and fresh media were added 24 hr and 48 hr later. After 72 hr in culture, cells were trypsinized, stained with trypan blue, and counted with a hemacytometer.
# The IEC-6 rat small intestine epithelial cell line (American Type Tissue Culture Collection, Manassas, Va.) were grown in Dulbecco's medium supplemented with 10% fetal calf serum. For experiments, 5×10^3 cells/well in a 24-well plate were seeded and, 24 hr later, 10^−6 M concentrations of the antisense or the scrambled S-ODN were added. Some wells were exposed to 10^−6 NTX or an equivalent volume of sterile water. Media, S-ODNs, or drugs were changed daily. After 72 hr in culture, cells were trypsinized, stained with trypan blue, and counted with a hemacytometer; 3 wells/treatment group were assessed. The data were evaluated with ANOVA, and subsequent comparisons were made with the Newman-Keuls tests.
# [4] = tested on: SK-N-AS human neuroblastoma cell line; experiment: Cell number in SK-N-AS cultures (trypan blue, hemacytometer); type: cell-based; conditions: 10^−6 M, SK-N-AS cells
# Description: FIG. 10 depicts histogram of cell number in cultures of SK-N-AS human neuroblastoma cells treated for 48 hr with either sterile water (CO), 10^−6 M NTX, 10^−6 M S-ODN, or scrambled oligonucleotide. Cells (6×10^3) were plated and compounds and fresh media added 24 hr and 48 hr later. After 72 hr in culture, cells were trypsinized, stained with trypan blue, and counted with a hemacytometer.
# To study the function of the isolated cDNA with respect to regulation of cell growth, a 23-mer antisense S-ODN (nuclease-resistant phosphorothioate; Oligo, Etc., Bethel, Me.) targeted against a sequence containing the translation initiation site of the OGF binding protein was designed: 5′-[…]-3′ (antisense, SEQ ID NO: 17). A scrambled (control) S-ODN was also designed: 5′-[…]-3′ (SEQ ID NO: 18).
# The SK-N-AS human neuroblastoma cell line (American Type Tissue Culture Collection, Manassas, Va.) was grown in Dulbecco's medium supplemented with 10% fetal calf serum. For experimentation, 6×10^3 cells/well in a 24-well plate were seeded and, 24 hr later, 10^−6 M concentrations of the antisense or the scrambled S-ODN was added. […] After 72 hr in culture, cells were trypsinized, stained with trypan blue, and counted with a hemacytometer. Data from the antisense experiments were evaluated with ANOVA, and subsequent comparisons made with the Newman-Keuls tests.
# [5] = target: rat OGFr 12-GST fusion protein (cDNA clone #12); experiment: Saturation binding of [^3H]-[Met^5]-enkephalin to purified rat OGFr GST fusion protein; conditions: mean±SE, 6 assays, 22° C., 30 min, read-out: binding affinity (Kd)
# Chain of rat OGFr 12-GST fusion protein (cDNA clone #12) (as listed by the source): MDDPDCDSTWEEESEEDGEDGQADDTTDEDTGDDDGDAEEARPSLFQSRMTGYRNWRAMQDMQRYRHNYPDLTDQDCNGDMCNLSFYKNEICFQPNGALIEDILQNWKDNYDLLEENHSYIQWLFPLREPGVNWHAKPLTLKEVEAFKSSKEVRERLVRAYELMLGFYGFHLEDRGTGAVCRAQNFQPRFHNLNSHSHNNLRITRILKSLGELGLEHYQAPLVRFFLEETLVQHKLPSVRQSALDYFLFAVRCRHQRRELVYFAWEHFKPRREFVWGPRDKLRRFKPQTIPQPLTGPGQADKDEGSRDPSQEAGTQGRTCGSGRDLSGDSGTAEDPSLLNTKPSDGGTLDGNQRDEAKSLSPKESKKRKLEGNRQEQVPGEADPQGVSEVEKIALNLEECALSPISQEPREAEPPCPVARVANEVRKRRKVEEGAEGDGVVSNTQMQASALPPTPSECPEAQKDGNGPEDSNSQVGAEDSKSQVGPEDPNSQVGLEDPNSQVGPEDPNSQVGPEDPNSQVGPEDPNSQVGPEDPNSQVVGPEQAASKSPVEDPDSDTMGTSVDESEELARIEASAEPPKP
# Description: Fusion proteins (80–120 ng/tube) were incubated for 30 min with shaking at 22° C. […] Binding was terminated by filtering homogenates through Whatman GF/B filters. Saturation isotherms were plotted using GraphPad Prism software (GraphPad Software Inc., San Diego, Calif.).
# [6] = target: normal mucosa enriched nuclear preparations (Homo sapiens, UniProt Q9NZT2); conditions: normal epithelium
# Excerpt: (§5) Human tissue samples were representative of a variety of squamous cell carcinomas, including specimens from the oral cavity-larynx, and regional metastases. Normal mucosal specimens were obtained during uvu-lopalatopharyngoplasty.
# [7] = target: SCCHN enriched nuclear preparations (Homo sapiens, UniProt Q9NZT2)
# Excerpt: as §5
# [8] = target: MIA PaCA-2 nuclear fraction (Homo sapiens, UniProt Q9NZT2); conditions: MIA PaCA-2, log phase
# Description: as §1, §2, §3
# BxPC-3 nuclear fraction = BxPC-3 nuclear fraction (Homo sapiens, UniProt Q9NZT2); conditions: BxPC-3, log phase
# Description: as §1, §2, §3
# Capan-1 nuclear fraction = Capan-1 nuclear fraction (Homo sapiens, UniProt Q9NZT2); conditions: Capan-1, log phase
# Description: as §1, §2, §3
# normal human pancreas = normal human pancreas (Homo sapiens, UniProt Q9NZT2); conditions: 3 normal specimens
# Description: Normal tissues (as determined from histological assessment) were obtained from two females and a person. […] Samples were collected and frozen in liquid nitrogen within 1 hr of surgery. Receptor binding assays were performed as stated above.
# [9] = target: human pancreatic cancer tissue (Homo sapiens, UniProt Q9NZT2)
# Description: as §3
# Receptor binding assays were performed as stated above.
# [10] = target: Xenografts of Capan-1 growing in nude mice (Homo sapiens, UniProt Q9NZT2); conditions: Capan-1 xenograft, harvested 40 days after inoculation
# Description: as §3
# [11] = target: nuclear-enriched fraction of human placenta; experiment: Binding of radiolabeled [Met^5]-enkephalin to human placenta; conditions: one-site model, read-out: binding affinity (Kd)
# Excerpt: A one-site model of binding was noted.
# [12] = target: PANC-1 subcellular fractions (P1, P2, P3, S3) (Homo sapiens, UniProt Q9NZT2)
# Description: For subcellular fractionation studies, the supernatant of P1 was centrifuged at 39,000× g for 30 min to obtain a plasma membrane pellet (P2). The P2 supernatant was centrifuged overnight (100,000× g), resulting in a microsomal pellet (P3) and soluble supernatant (S3). All fractions were inspected for purity by phase-contrast microscopy.
# as §3
# Sucrose gradient centrifugation was performed to separate the nuclear (P1), membrane (P2), microsomal (P3), and soluble (S3) fractions (Table II).
# [13] = optimal conditions, P1 fraction
compound,measurement,setting,value
"Nc1nc2c(ncn2[C@@H]2O[C@H](COP(=O)(O)OP(=O)(O)NP(=O)(O)O)[C@@H](O)[C@H]2O)c(=O)[nH]1 [GppNHp, guanylylimidodiphosphate]",effect on binding of [^3H]-[Met^5]-enkephalin,"[1]; 50, 100, or 200 μM",not markedly altered
Dynorphin A1-8 (YGGFLRRI) [κ receptor ligand],competition for [^3H][Met^5]-enkephalin binding,[2],little or no competition
"CC[C@]12CCN(CC3CC3)[C@H](C(=O)c3ccc(O)cc31)[C@@H]2C [EKC, ethylketocyclazocine]",competition for [^3H][Met^5]-enkephalin binding,[2],little or no competition
"O=C1CC[C@@]2(O)[C@H]3Cc4ccc(O)c5c4[C@@]2(CCN3CC2CC2)[C@H]1O5 [NTX, naltrexone]",elevation of cell number from control cultures,[3],223%
same,growth relative to control cultures,[4]; 48 hr,increased cell growth from control values
"5′-GGTCGTCCATGCTCGGCTAGAAT-3′ (DNA, all phosphorothioate, methylation of C not given here) [antisense S-ODN (SEQ ID NO: 17)]",elevation of cell number from control cultures,[4]; 48 hr of exposure,60%
[^3H]-[Met^5]-enkephalin,Kd,[5],2.8 ± 1.1 nM
same,time to reach binding equilibrium,[1]; 22° C.,60 to 75 min
same,Bmax,"[1]; PANC-1, Table IV, at least 3 independent assays",28.9 ± 6.2 fmol/mg
same,Bmax,"[1]; PANC-1 Confluent, 5 days in culture",7.8 ± 0.0 fmol/mg protein
same,Bmax,"[1]; PANC-1 Log phase, 3 days in culture",20.7 ± 1.2 fmol/mg protein
same,Bmax,"[1]; PANC-1 Post-confluent, 7–8 days in culture",35.6 ± 0.3 fmol/mg protein
same,effect of length of time in culture on affinity,"[1]; PANC-1 log phase, confluent, post-confluent",no effect
same,reduction of binding capacity in contrast to post-confluent cells,[1]; confluent cultures,78%
same,"Binding, of the optimal binding at 22° C.",[1]; incubation at 0° C.,12%
same,"Binding, of the optimal binding at 22° C.",[1]; incubation at 37° C.,21%
same,reduction of binding capacity in contrast to post-confluent cells,[1]; log-phase cultures,42%
same,"Nonspecific binding, of the total binding",[1]; [13],~52%
same,maximal binding capacity (Bmax),[1]; [13],36.4±4.1 fmol/mg protein
same,Binding capacity (Bmax),[6],80.8±32.8 fmol/mg protein
same,Binding capacity (Bmax),[7]; neoplastic specimens,13.6±1.9 fmol/mg protein
same,Bmax of neoplastic specimens less than normal epithelium,[7]; p<0.01,6 fold
same,Bmax,[8],11.9 ± 1.5 fmol/mg
same,Bmax,BxPC-3 nuclear fraction,25.5 ± 9.7 fmol/mg
same,Bmax,Capan-1 nuclear fraction,22.7 ± 9.5 fmol/mg
same,Bmax,normal human pancreas,46.7±27.8 fmol/mg protein
same,binding recorded,[9]; 3 further specimens,non-specific and non-saturable binding
same,Bmax,[9]; specimens from 3 patients,6.6±1.2 fmol/mg protein
same,Bmax,[10],4.2±1.1 fmol/mg protein
same,Kd,[11],12.3 ± 3.9 nM
same,Bmax,"[12]; P1 fraction, Nuclear",21.8±4.8 fmol/mg protein
same,specific and saturable binding,"[12]; fractions enriched in P2, P3, or S3",No specific and saturable binding
"C[C@@H](NC(=O)[C@@H](N)Cc1ccc(O)cc1)C(=O)NCC(=O)N(C)[C@@H](Cc1ccccc1)C(=O)NCCO [DAMGO, [D-Ala^2, N-Me-Phe^4, Gly^5-ol]-enkephalin]",competition for [^3H][Met^5]-enkephalin binding,[2],little or no competition
"DPDPE [[D-Pen^2, Pen^5]-enkephalin]",competition for [^3H][Met^5]-enkephalin binding,[2],little or no competition
β-endorphin,IC50/Kd,"[2]; competition with [^3H]-[Met^5]-enkephalin, at least 2 independent assays",>10^−4
[Met^5]-enkephalin,ability to displace [^3H][Met^5]enkephalin relative to the next ranking compound,[2],100 fold
"5′-GACTCAGGGACTTAGCTTCATCC-3′ (DNA, all phosphorothioate, methylation of C not given here) [antisense S-ODN (SEQ ID NO: 15)]",elevation of cell number from control cultures,[3],294%
